These results are taken from paper PMC11956012, “Optimization of Cyclophilin B-Targeted Tri-vector Inhibitors for Novel MASH Treatments” (Journal of Medicinal Chemistry, 2025).

In general, EC50 refers to the concentration at which the effect is half-maximal. Usually Kd stands for the constant that tells how readily two partners part at equilibrium. The low end stands for higher affinity, the high end for lower affinity. The efflux ratio is the permeability from basolateral to apical divided by that in the opposite direction, in the common usage. One may read the solubility as the dissolved amount per volume that the medium holds. Read a high solubility as much dissolved substance. The logD is the decadic logarithm of the distribution of all forms, ionised or not, between an organic phase and buffer at a given pH. A high value points to higher lipophilicity.

Data set [1] deals with permeabilised human hepatocyte (HepG2) cells. The data set can be described thus: Calcium Retention Capacity assay. Format: cell-based. Particulars: Homo sapiens; digitonin-permeabilised HepG2 cells; read-out: EC50 CRC assay.
Experimental: Calcium Retention Capacity Assay
The compounds were prepared as a 10 mM stock solution in 100% DMSO. Subsequent dilutions were made in 100% DMSO and then in assay buffer to 10-fold the final concentration.
HepG2 cells were permeabilized with 100 µM digitonin for 10 min in ice cold buffer containing 1mM EGTA. Following two wash steps to remove the digitonin, the cells were plated into 96 well black and clear plates at 106 cell per well in a 180 µL assay buffer containing 0.5 µM Calcium Green 5N. Compounds dilution were prepared in DMSO to 1000 fold the final concentration, diluted 1:100 in assay buffer and added to the assay as 20 µL per well. The assay buffer contained 5 mM glutamate and 2.5 mM malate. The cell plate was immediately run on the FLIPR Tetratm which added 5 µL of 200 µM (5 µM) calcium chloride every 5 minutes whilst reading the plate every 3 seconds. The area under the curve (AUC) of the raw trace was calculated at each concentration. AUC values were plotted against concentration and EC50 values calculated. Experiments were repeated three times and the EC50 value was determined from a curve fitted to the averaged replicates.
The target of data set [2] is Cyp A (Homo sapiens, UniProt P62937).
Chain of Cyp A (P62937 whole entry): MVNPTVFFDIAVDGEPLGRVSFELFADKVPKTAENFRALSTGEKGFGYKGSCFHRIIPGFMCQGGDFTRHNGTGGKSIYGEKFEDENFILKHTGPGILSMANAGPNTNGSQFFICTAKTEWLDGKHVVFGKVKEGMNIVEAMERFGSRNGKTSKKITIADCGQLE
Experimental: (§1) The cyclophilin binding properties of the compounds were assessed by Surface Plasmon Resonance (SPR) against Cyp A, B and D isoforms (Table 1, representative sensorgrams are shown in Figure 3A).[35]
Surface Plasmon Resonance (SPR)
(§2) SPR measurements were performed on a Biacore T200 instrument (Cytiva). Ni2+ -
(§3) nitrilotriacetic acid (NTA) sensor chips, 1-ethyl-3-(3-diaminopropyl) carbodiimide
(§4) hydrochloride (EDC) and N hydroxy succinimide (NHS) were purchased from Cytiva.
(§5) Immobilization and covalent stabilization of His-Cyps Pure His-cyclophilins on the NTA
(§6) sensor chip was performed essentially as described. [Wear et al., 2017, FEBS OpenBio], using
(§7) 200 nM concentrations of each protein, in Running Buffer (PBS, pH7.4; 0.05 % surfactant P20,
(§8) 2% v/v ethanol; 50 µM EDTA), at 30 µl min-1 with 60 second contact times on the activated
(§9) NTA surfaces. This gave signals of 1,921 RU for His-CypA, 1932 RU for His-CypB and 1,397
(§10) RU for His-CypD. Specific surface protein activity was assayed by passing saturating amounts
(§11) activity were obtained for His-CypA, -B and –D, respectively.
Kinetic titration experiments
(§12) Single cycle kinetic titration binding experiments were performed in triplicate at 25 °C. 3-fold
(§13) injected over the sensor surface, at 100 µl min-1 with a 90 s contact time and a 90 s dissociation
(§14) time. The sensor surface was regenerated between experiments by dissociating any formed
(§15) complex in running buffer for at least 1,200 seconds. The apparent on-rate (k+) and off-rate (k-
(§16) ) constants and the equilibrium dissociation constant (Kd) were calculated from reference
Data set [3] deals with Cyp D (Homo sapiens, UniProt P30405).
Chain of Cyp D (P30405 42-207): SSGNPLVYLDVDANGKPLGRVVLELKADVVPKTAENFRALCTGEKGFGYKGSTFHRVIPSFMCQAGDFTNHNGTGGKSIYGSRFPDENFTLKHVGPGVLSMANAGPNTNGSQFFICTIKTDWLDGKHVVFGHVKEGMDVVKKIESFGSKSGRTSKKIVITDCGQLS
Experimental: as §1
Surface Plasmon Resonance (SPR)
as §2, §3, §4, §5, §6, §7, §8, §9, §10, §11
Kinetic titration experiments
as §12, §13, §14, §15, §16
Data set [4] concerns the target T1, Cyp B (Homo sapiens, UniProt P23284). Nature of the data set: biochemical.
Experimental: as §1
Surface Plasmon Resonance (SPR)
as §2, §3, §4, §5, §6, §7, §8, §9, §10, §11
Kinetic titration experiments
as §12, §13, §14, §15, §16
Data set [5] is described as follows: Intrinsic clearance, rat liver microsomes. The following applies: for microsomal CLint: Table 3, read-out: Rat Liver microsomes CL; for half-life: read-out: Rat Liver microsomes t1/2. Format: in vitro ADME. In general terms: Liver microsomes are vesicles of endoplasmic reticulum, rich in cytochrome P450 enzymes.
Data set [6] in a line: Intrinsic clearance, human liver microsomes. Format: in vitro ADME. Particulars: for microsomal CLint: Table 3, read-out: Human Liver microsomes CL; for half-life: read-out: Human Liver microsomes t1/2.
Data set [7] can be described thus: Intrinsic clearance, rat hepatocytes. Format: in vitro ADME. The following applies: hepatocytes; for hepatocyte CLint: Table 3, read-out: Rat Hepatocytes CL; for half-life: read-out: Rat Hepatocytes t1/2.
A short description of data set [8]: Intrinsic clearance, human hepatocytes. Format: in vitro ADME. Particulars: hepatocytes; for hepatocyte CLint: Table 3, read-out: Human Hepatocytes CL; for half-life: read-out: Human Hepatocytes t1/2.
A short description of data set [9]: Caco-2 permeability. The following applies: human, Caco-2.
The subject of data set [10] is Caco-2. Nature of the data set: Caco-2 permeability. Particulars: apparent permeability A-B. (Caco-2 monolayers are a common model of the intestinal barrier.)
Data set [11] has as its system Salmonella typhimurium TA98. The data set can be described thus: Ames fluctuation test TA98. The following applies: for Ames fluctuation test TA98 +S9: with rat liver S9; for Ames fluctuation test TA98 –S9: without S9.
Experimental: (§17) Bacterial cytotoxicity tests were carried out using Reverted Salmonella typhimurium strains
(§18) (TA98, TA100, TA1535, TA1537) that were incubated 96 hours at 37 Celsius. The results for
(§19) cytotoxicity are expressed as percent of control growth (OD650). Compounds with growth of
(§20) less than 60 % of control are flagged and considered cytotoxic.
(§21) Compounds were incubated for 96 hours at 37°C at 4 different concentrations (5 mM, 10 mM,
(§22) the absence and presence of rat liver S9 microsomes.
(§23) to the reversion of the histidine mutation (as judged by the ratio of OD430/OD570 being greater
(§24) than 1.0) are counted and recorded as positive counts. The significance of the positive counts
(§25) between the treatment (in the presence of test compound) and the control (in the absence of test
(§26) compound) are calculated using the one-tailed Fisher's exact test. Three significance levels are
(§27) Very strong positive, if p < 0.001, denoted as "+++"
(§28) Control experiments were carried out with 2-aminoanthracene (10 mM), 9-aminoacridine (10
(§29) mM), quercetin (30 mM) and streptozocitin (2.5 mM).
The test system of data set [12] is Salmonella typhimurium TA100. Nature of the data set: Ames fluctuation test TA100. The following applies: for Ames fluctuation test TA100 +S9: with rat liver S9; for Ames fluctuation test TA100 –S9: without S9.
Experimental: as §17, §18, §19, §20, §21, §22, §23, §24, §25, §26, §27, §28, §29
The test system of data set [13] is Salmonella typhimurium TA1535. The data set can be described thus: Ames fluctuation test TA1535. Particulars: for Ames fluctuation test TA1535 +S9: with rat liver S9; for Ames fluctuation test TA1535 –S9: without S9. For orientation: In the Ames test, an excess of revertant colonies over the control signals mutagenicity.
Experimental: as §17, §18, §19, §20, §21, §22, §23, §24, §25, §26, §27, §28, §29
Data set [14] relates to Salmonella typhimurium TA1537. Nature of the data set: Ames fluctuation test TA1537. Particulars: for Ames fluctuation test TA1537 +S9: with rat liver S9; for Ames fluctuation test TA1537 –S9: without S9.
Experimental: as §17, §18, §19, §20, §21, §22, §23, §24, §25, §26, §27, §28, §29
Data set [15] is described as follows: Aqueous kinetic solubility, shake-flask.
Experimental: (§30) These experiments were subcontracted to Eurofins.
(§31) Kinetic solubility measurements were carried out using a shake-flask technique. Compounds
(§32) were incubated for 24 hours at room temperature. Aqueous solubility (μM) was determined by
(§33) comparing the peak area of the principal peak in a calibration standard (200 μM) containing
(§34) organic solvent (methanol/water, 60/40, v/v) with the peak area of the corresponding peak in a
(§35) buffer sample. In addition, chromatographic purity (%) was defined as the peak area of the
(§36) principal peak relative to the total integrated peak area in the HPLC chromatogram of the
(§37) calibration standard. A chromatogram of the calibration standard of each test compound, along
(§38) with a UV/VIS spectrum with labeled absorbance maxima, was generated.
(§39) These were measured using a shake-flask technique. Compounds were incubated for 60 min at
(§40) room temperature. The total amount of compound was determined as the peak area of the
(§41) principal peak in a calibration standard (100 μM) containing organic solvent (methanol/water,
(§42) 60/40, v/v). The amount of compound in buffer was determined as the combined, volume
(§43) corrected, and weighted areas of the corresponding peaks in the aqueous phases of three
(§44) organic-aqueous samples of different composition. An automated weighting system was used
(§45) to ensure the preferred use of raw data from those samples with well quantifiable peak signals.
(§46) The amount of compound in organic was calculated by subtraction. Subsequently, Log D was
(§47) calculated as the Log10 of the amount of compound in the organic phase divided by the amount
of compound in the aqueous phase.
Data set [16] in a line: Partition coefficient (Log D), shake-flask. The following applies: octanol/water.
Experimental: as §30, §31, §32, §33, §34, §35, §36, §37, §38, §39, §40, §41, §42, §43, §44, §45, §46, §47
of compound in the aqueous phase.
The subject of data set [17] is Salmonella typhimurium strains (TA98, TA100, TA1535, TA1537). Nature of the data set: Ames tests, all strains (summary in words). Particulars: in absence and presence of liver S9 fractions.
Experimental: as §17, §18, §19, §20, §21, §22, §23, §24, §25, §26, §27, §28, §29
For data set [18], the system named is iPSC-derived hepatocytes. The data set can be described thus: In vitro hepatic steatosis (MASH) assay. In kind it is cell-based. Particulars: 48 h treatment.
For data set [19], the target named is T1, Cyp B. Particulars: from SPR Kd.
Experimental: as §1
Surface Plasmon Resonance (SPR)
as §2, §3, §4, §5, §6, §7, §8, §9, §10, §11
Kinetic titration experiments
as §12, §13, §14, §15, §16
Setting [20] is: Kd Cyp B, SPR-derived dissociation constant, 25 °C.

SMILES strings stand for the structures. Read-outs that look alike come from different tables or passages of the source. A value given as a limit tells only on which side of the number the result lay.

T1 sequence (P23284 32-216 limits assumed): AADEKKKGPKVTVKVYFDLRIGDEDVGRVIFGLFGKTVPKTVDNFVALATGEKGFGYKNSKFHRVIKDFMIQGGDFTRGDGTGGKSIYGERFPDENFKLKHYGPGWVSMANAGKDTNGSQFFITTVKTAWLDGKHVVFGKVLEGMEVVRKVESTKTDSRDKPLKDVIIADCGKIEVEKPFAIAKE

In the case of `CSc1ccccc1[C@H]1CCCN1C(=O)CNC(=O)N(Cc1ccc(N)cc1)Cc1nnn(C)n1` [Compound 2, 1-[(4-Aminophenyl)methyl]-1-[(2-methyltetrazol-5-yl)methyl]-3-[2-oxo-2-[(2R)-2-(2-methylsulfanylphenyl)pyrrolidin-1-yl]ethyl]urea], the EC50 in [1] turned out to be 1390 nM. Besides, the Kd in [2] was found to be 90 ± 10 nM; in data set [3] it was 80 ± 10 nM; in data set [4] it was 12 ± 4 nM.
As to `CSc1ccccc1[C@@H]1CCCN1C(=O)CNC(=O)N(Cc1ccc2c(c1)[C@@H]1C[C@@H](N2)[C@H](O)CO1)Cc1nnn(C)n1` [Compound 4, 1-[[(1S,9R,10S)-10-Hydroxy-12-oxa-8-azatricyclo[7.3.1.0,^27]trideca-2,4,6-trien-4-yl]methyl]-3-[2-[(2S)-2-(2-methylsulfanylphenyl)pyrrolidin-1-yl]-2-oxo-ethyl]-1-[(2-methyltetrazol-5-yl)methyl]urea], the EC50 in data set [1] came to 4120 nM. The Kd is 310 ± 40 nM in data set [2], 400 ± 30 nM in data set [3] and 420 ± 80 nM in data set [4] (setting [20]).
For the compound `CSc1ccccc1[C@H]1CCCN1C(=O)CNC(=O)N(Cc1cc(F)c(N)c(F)c1)Cc1nnn(C)n1` [Compound 5, 1-[(4-Amino-3,5-difluoro-phenyl)methyl]-1-[(2-methyltetrazol-5-yl)methyl]-3-[2-oxo-2-[(2R)-2-(2-methylsulfanylphenyl)pyrrolidin-1-yl]ethyl]urea], the Kd was 1160 ± 200 nM in data set [2], 1010 ± 120 nM in [3] and 200 ± 40 nM in data set [4].
For `CSc1ccccc1[C@H]1CCCN1C(=O)CNC(=O)N(Cc1cc(F)c(N)c(F)c1)Cc1cn(C)nn1` [Compound 6, 1-[(4-Amino-3,5-difluoro-phenyl)methyl]-1-[(1-methyltriazol-4-yl)methyl]-3-[2-oxo-2-[(2R)-2-(2-methylsulfanylphenyl)pyrrolidin-1-yl]ethyl]urea] the same measures were 4600 ± 2400 nM, 2970 ± 800 nM and 630 ± 100 nM.
For `C#CCN(Cc1cc(F)c(N)c(F)c1)C(=O)NCC(=O)N1CCC[C@@H]1c1ccccc1SC` [Compound 7, 1-[(4-Amino-3,5-difluoro-phenyl)methyl]-3-[2-oxo-2-[(2R)-2-(2-methylsulfanylphenyl)pyrrolidin-1-yl]ethyl]-1-prop-2-ynyl-urea], the results for the Kd in [2], in data set [3] and in data set [4] were 8750 ± 2900 nM, 5850 ± 2000 nM and 3740 ± 780 nM, respectively.
On to `Cn1nnc(CN(Cc2ccc(N)c(Cl)c2)C(=O)NCC(=O)N2CCC[C@@H]2c2ccccc2Br)n1` [Compound 10, 1-[(4-Amino-3-chloro-phenyl)methyl]-1-[(2-methyltetrazol-5-yl)methyl]-3-[2-oxo-2-[(2R)-2-(2-bromophenyl)pyrrolidin-1-yl]ethyl]urea], for which the microsomal CLint in data set [5] is 238 µL/min/mg; in data set [6], 344 µL/min/mg. Also, the half-life is 29 min in data set [5], 20 min in [6], > 120 min in [7] and 85 min in data set [8]. Besides, the hepatocyte CLint in [7] was < 8 µL/min/1e6 cells; in data set [8] it was 12 µL/min/1e6 cells. Moreover, the results for the equilibrium dissociation constant (Kd) in [2], in data set [3] and in [4] were 200 ± 40 nM, 580 ± 100 nM and 35 ± 6 nM, respectively. Also, the efflux ratio in data set [9] is 1.9. Further, the “Caco-2 A-B” value in data set [10] is 6.6 10^–6 cm/s. Further, the “Ames fluctuation test TA98 +S9” value in data set [11] is “neg/neg”. Moreover, in [11], the “Ames fluctuation test TA98 –S9” value is reported as “neg/neg”. Also, in data set [12], the “Ames fluctuation test TA100 +S9” value is listed as “neg/neg”. In addition, in [12], the “Ames fluctuation test TA100 –S9” value was “neg/neg”. Moreover, in data set [13], the “Ames fluctuation test TA1535 +S9” value is on record as “neg/neg”. Also, the “Ames fluctuation test TA1535 –S9” value in [13] is “neg/neg”. The “Ames fluctuation test TA1537 +S9” value in [14] is recorded as “neg/neg”. In addition, the “Ames fluctuation test TA1537 –S9” value in [14] is “neg/neg”. Besides, the solubility at 24 h in [15] (PBS, pH 7.4) was > 200 µM; in data set [15] (simulated gastric fluid), > 200 µM; in data set [15] (simulated intestinal fluid), > 200 µM. The compound further had a logD at 1 h, 100 µM in data set [16] of 1.74. Further, in [17], the “Ames result in all strains tested” value is “negative”.
For `CSc1ccccc1[C@H]1CCCN1C(=O)CNC(=O)N(Cc1cnc(N)nc1)Cc1ncc(C)s1` [Compound 12, 1-[(2-Aminopyrimidin-5-yl)methyl]-1-[(5-methylthiazol-2-yl)methyl]-3-[2-oxo-2-[(2R)-2-(2-methylsulfanylphenyl)pyrrolidin-1-yl]ethyl]urea], the “effect on hepatocyte overall lipid levels and lipid droplet size (in words)” value in [18] is “lack of potency”. Moreover, in data set [18] (Hepatocyte, 48 h, read-out: EC50 MASH assay), the EC50 is > 10000 nM. Further, the microsomal CLint in data set [5] turned out to be 449 µL/min/mg; in data set [6], 604 µL/min/mg. Further, the half-life is 15 min in data set [5], 11 min in data set [6], 84 min in data set [7] and 94 min in data set [8]. In addition, the hepatocyte CLint in data set [7] is 12 µL/min/1e6 cells; in data set [8], 11 µL/min/1e6 cells. Further, the Kd in data set [2] is 7300 ± 1000 nM; in [3] it was 1500 ± 500 nM; in data set [4] (setting [20]), 88 ± 20 nM. Further, the “selectivity for Cyp B over Cyp A” value in [19] is 80 fold. The efflux ratio in data set [9] is 16. The “Caco-2 A-B” value in data set [10] is 0.8 10^–6 cm/s. In data set [11], the “Ames fluctuation test TA98 +S9” value was “neg/neg”. In addition, in data set [11], the “Ames fluctuation test TA98 –S9” value is recorded as “neg/neg”. Also, the “Ames fluctuation test TA100 +S9” value in data set [12] is listed as “neg/neg”. Further, the “Ames fluctuation test TA100 –S9” value in data set [12] is on record as “neg/neg”. The “Ames fluctuation test TA1535 +S9” value in [13] is “neg/neg”. Also, the “Ames fluctuation test TA1535 –S9” value in data set [13] is “neg/neg”. The “Ames fluctuation test TA1537 +S9” value in data set [14] is recorded as “neg/neg”. For the same compound, in data set [14], the “Ames fluctuation test TA1537 –S9” value is “neg/neg”. Besides, the solubility at 24 h is > 200 µM in data set [15] (PBS, pH 7.4); > 200 µM in data set [15] (simulated gastric fluid); > 200 µM in [15] (simulated intestinal fluid). In data set [16], this compound returned a logD at 1 h, 100 µM of 1.27. In addition, in data set [17], the “Ames result in all strains tested” value is “negative”.
As for `CSc1ccccc1[C@H]1CCCN1C(=O)CNC(=O)N(Cc1cnc(N)nc1)Cc1nnc(C)s1` [Compound 13, 1-[(2-Aminopyrimidin-5-yl)methyl]-1-[(5-methyl-1,3,4-thiadiazol-2-yl)methyl]-3-[2-oxo-2-[(2R)-2-(2-methylsulfanylphenyl)pyrrolidin-1-yl]ethyl]urea], the Kd in data set [2] was found to be 670 ± 100 nM; in data set [3], 1200 ± 300 nM; in data set [4], 184 ± 7 nM.
The matching figures for `CSc1ccccc1[C@H]1CCCN1C(=O)CNC(=O)N(Cc1cnc(N)c(Cl)c1)Cc1nnc(C)s1` [Compound 14, 1-[(6-Amino-5-chloro-3-pyridyl)methyl]-1-[(5-methyl-1,3,4-thiadiazol-2-yl)methyl]-3-[2-oxo-2-[(2R)-2-(2-methylsulfanylphenyl)pyrrolidin-1-yl]ethyl]urea]: 960 ± 130 nM, 2400 ± 430 nM and 92 ± 75 nM.
For `CSc1ccccc1[C@H]1CCCN1C(=O)CN1C(=O)N(Cc2ccc(N)c(Cl)c2)CC1=NNC(C)=O` [Compound 16, N-[[1-[(4-amino-3-chloro-phenyl)methyl]-2-oxo-3-[2-oxo-2-[(2R)-2-(2-methylsulfanylphenyl)pyrrolidin-1-yl]ethyl]imidazolidin-4-ylidene]amino]acetamide] the same measures were 7100 ± 1250 nM, 9100 ± 900 nM and 4500 ± 500 nM.
For `CC(=O)NN=C1CN(Cc2ccc(N)c(Cl)c2)C(=O)N1CC(=O)N1CCC[C@@H]1c1ccccc1Br` [Compound 17, N-[[1-[(4-amino-3-chloro-phenyl)methyl]-3-[2-[(2R)-2-(2-bromophenyl)pyrrolidin-1-yl]-2-oxo-ethyl]-2-oxo-imidazolidin-4-ylidene]amino]acetamide] the same measures were > 10000 nM, > 10000 nM and > 10000 nM.
On to `CSc1ccccc1[C@H]1CCCN1C(=O)CN1C(=O)N(Cc2cnc(N)c(Cl)c2)CC1=NNC(C)=O` [Compound 18, N-[[1-[(6-amino-5-chloro-3-pyridyl)methyl]-3-[2-[(2R)-2-(2-methylsulfanylphenyl) Pyrrolidin-1-yl]-2-oxo-ethyl]-2-oxo-imidazolidin-4-ylidene]amino]acetamide], for which the Kd in [2], in data set [3] and in data set [4] was > 10000 nM throughout.
Take `CC(=O)NN=C1CN(Cc2cnc(N)c(Cl)c2)C(=O)N1CC(=O)N1CCC[C@@H]1c1ccccc1Br` [Compound 19, N-[[1-[(6-amino-5-chloro-3-pyridyl)methyl]-2-oxo-3-[2-oxo-2-[(2R)-2-(2-bromophenyl) Pyrrolidin-1-yl]ethyl]imidazolidin-4-ylidene]amino]acetamide]: the Kd in [2], in data set [3] and in data set [4] was > 10000 nM in each case.
